According to patent US11008572B2, “Methods and compositions for modulating splicing” (SKYHAWK THERAPEUTICS, INC., priority 2017, dated 2021):

How the values were obtained:
[1] = test system: FOXM1^A2 mRNA and FOXM1^BC mRNA; assay: Splicing assay (FOXM1), qPCR of isoform mRNAs; type: cell-based; conditions: for IC50: FoxM1 BC mRNA decrease (exon included), read-out: Splice IC50 (nM) FoxM1 BC mRNA decrease (exon included); for EC50: read-out: Splice EC50 (nM) FoxM1 A mRNA increase (exon excluded)
Method: Various cells lines were treated with the SMSMs described herein. RNA was then isolated, cDNA synthesized, qPCR performed and the levels of various mRNA targets of the SMSMs were determined. In some instances, RNA was isolated, cDNA synthesized, qPCR performed and the levels of mRNA isoforms in the various cell samples were determined.
On the day of the experiment, a 96-well plate was seeded with the cell lines of interest. The cells were diluted with full growth media to a concentration of 2.0×10^5 cells/mL and 100 μL of cells were added to each well (20,000 cells per well). The cells were treated with a compound immediately after plating.
The compounds were then added to the cell plate using the HP compound dispenser. In the initial experiment, a top concentration of 10 μM and an 8 point 4-fold dilution scheme was used. The stock compounds were made at a concentration of 5 mM, and the DMSO concentration was set to 0.2%. DMSO was used to normalize all the compound-containing wells and the untreated cells.
The treated cells were incubated at 37° C. in a 5% CO2 incubator for the desired amount of time. Plates were placed in a plastic bag with a wet paper towel to prevent evaporation.
RNA was isolated using the Cells to CT kit (ThermoFisher, AM1728). The cells were washed once with 100 μL cold PBS. 50 μL of lysis buffer was added to each well/tube (49.5 μL lysis buffer+0.5 μL DNase I per well/tube). The lysis reaction was mixed and incubated at room temperature for 5 minutes. 5 μL of stop solution was added directly into each cell lysis reaction and mixed by pipetting up and down 5 times. The plates/tubes were incubated at room temperature for 2 minutes then placed on ice if the cDNA synthesis was to be performed immediately. Otherwise, the plates/tubes were stored at −80° C. cDNA synthesis reactions were then performed. Reverse Transcription (RT) Master mix was prepared according to the table below.
40 μL RT master mix was added to PCR tubes or plate wells. 10 μL of RNA was added to each tube/well. The RT thermal cycler program was then run and tubes or plate wells were incubated at 37° C. for 1 hour, then at 95° C. for 5 minutes to deactivate the enzyme.
The qPCR was performed using a QuantStudio 6 instrument (ThermoFisher) and the following cycling conditions and according to the tables below. All samples and standards were analyzed in triplicate. Cycle 1: 2 minutes at 50° C. Cycle 2: 10 minutes at 95° C. Cycle 3 (repeat 40 times): 15 seconds at 95° C., 1 minute at 60° C.
The determined isoform 2and isoform 1quantities were then be used to determine the isoform 2: […] at the various compound concentrations. The PPIA quantities were used in the normalization to account of cell proliferation effects of the compounds.
The dilution necessary to make the top standard is calculated. A top concentration 200,000,000 copies/μL of the stock plasmid was prepared in TE buffer. A series of 10-fold dilutions, also in TE, were then made. A total of 5 μL of each standard was used in a qPCR well to generate samples containing 109 copies, […], 10^7copies, 10^6 copies, 10^5 copies, 10^4 copies, 10^3 copies, 10^2 copies, 10^1copies, and 0 copies.
An assay to measure the FOXM1^A2 mRNA and FOXM1^BC mRNA, or MADD^WT (isoform 4) mRNA and MADD^Ex16 (isoform 3) mRNA, or MAPTau^4R mRNA and MAPTau^3R mRNA simultaneously in cell wells was performed. The RNA values were measured relative to DMSO control and also included a housekeeping gene, PPIA to ensure data was consistent. The mRNA values were measured after 24 hours of incubation with the SMSM compounds.

[2] = test system: A-673 cells; assay: Cell viability, crystal violet staining; type: cell-based; conditions: Homo sapiens, A673, cell viability, read-out: A-673 IC50 (nM) Cell viability
Outline: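 Readout is absorbance at 570 nm of crystal violet, taken up in 0.1 M sodium citrate in 50% ethanol after staining with 0.5% dye in 25% methanol. Plates held 5×10^3 cells per well, and compounds were added one day after seeding for 72 hours. Data are relative to vehicle, mean±SE.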

Compound	IC50 [1] [nM]	EC50 [1] [nM]	IC50 [2] [nM]
Oc1cc(-c2cn[nH]c2)ccc1-c1ccc(N2CCC3CNCCC32)nn1 (stereo not drawn) [compound 131, 2-(6-(octahydro-1H-pyrrolo[3,2-c]pyridin-1-yl)pyridazin-3-yl)-5-(1H-pyrazol-4-yl)phenol]	251 to 500	101 to 250	> 1000
COCCN(c1ccc(-c2ccc(-c3cn[nH]c3)cc2O)nn1)C1CC(C)(C)NC(C)(C)C1 [compound 133, 2-(6-((2-methoxyethyl)(2,2,6,6-tetramethylpiperidin-4-yl)amino)pyridazin-3-yl)-5-(1H-pyrazol-4-yl)phenol]	> 1000	501 to 1000	> 1000
CN(c1cnc(-c2ccc(-c3cn[nH]c3)cc2O)nc1)C1CC(C)(C)NC(C)(C)C1 [compound 134, 2-(5-(methyl(2,2,6,6-tetramethylpiperidin-4-yl)amino)pyrimidin-2-yl)-5-(1H-pyrazol-4-yl)phenol]	> 1000	> 1000	> 1000
CN(c1ccc(-c2ccc(-c3cn[nH]c3)cc2O)nc1)C1CC(C)(C)NC(C)(C)C1 [compound 135, 2-(5-(methyl(2,2,6,6-tetramethylpiperidin-4-yl)amino)pyridin-2-yl)-5-(1H-pyrazol-4-yl)phenol]	> 1000	> 1000	> 1000
CN(c1cnc(-c2ccc(-c3cn[nH]c3)cc2O)cn1)C1CC(C)(C)NC(C)(C)C1 [compound 136, 2-(5-(methyl(2,2,6,6-tetramethylpiperidin-4-yl)amino)pyrazin-2-yl)-5-(1H-pyrazol-4-yl)phenol]	251 to 500	101 to 250	501 to 1000
CN(c1ccc(-c2ccc(-c3cn[nH]c3)cc2O)nn1)[C@H]1[C@@H]2CNC[C@@H]21 [compound 137, 2-(6-(((1R,5S,6s)-3-azabicyclo[3.1.0]hexan-6-yl)(methyl)amino)pyridazin-3-yl)-5-(1H-pyrazol-4-yl)phenol]	> 1000	> 1000	> 1000
CN(c1ccc(-c2ccc(-c3cn[nH]c3)cc2O)nn1)[C@H]1C[C@H]2CC[C@@H](C1)N2 [compound 139, 2-(6-(((1R,3r,5S)-8-azabicyclo[3.2.1]octan-3-yl)(methyl)amino)pyridazin-3-yl)-5-(1H-pyrazol-4-yl)phenol]	> 1000	> 1000	> 1000
Oc1cc(-c2cn[nH]c2)ccc1-c1ccc(O[C@@H]2C[C@H]3CC[C@@H](C2)N3)nn1 [compound 140, 2-(6-(((1R,3s,5S)-8-azabicyclo[3.2.1]octan-3-yl)oxy)pyridazin-3-yl)-5-(1H-pyrazol-4-yl)phenol]	10 to 100	10 to 100	101 to 250
Oc1cc(-c2cn[nH]c2)ccc1-c1ccc(O[C@H]2C[C@H]3CC[C@@H](C2)N3)nn1 [compound 141, 2-(6-(((1R,3r,5S)-8-azabicyclo[3.2.1]octan-3-yl)oxy)pyridazin-3-yl)-5-(1H-pyrazol-4-yl)phenol]	> 1000	> 1000	> 1000
CN(c1ccc(-c2ccc(-c3cn[nH]c3)cc2O)nn1)[C@H]1C[C@H]2CNC[C@H]2C1 [compound 142, 2-(6-(methyl((3R,5r,6S)-octahydrocyclopenta[c]pyrrol-5-yl)amino)pyridazin-3-yl)-5-(1H-pyrazol-4-yl)phenol]	501 to 1000	251 to 500	> 1000
CN(c1ccc(-c2ccc(-c3cn[nH]c3)cc2O)nn1)[C@@H]1C[C@H]2CNC[C@H]2C1 [compound 143, 2-(6-(methyl((3R,5s,6S)-octahydrocyclopenta[c]pyrrol-5-yl)amino)pyridazin-3-yl)-5-(1H-pyrazol-4-yl)phenol]	501 to 1000	251 to 500	> 1000
CN(c1ccc(-c2ccc(-c3cn[nH]c3)cc2O)nn1)[C@@H]1[C@@H]2CC[C@H]1CNC2 [compound 144, 2-(6-(((1R,5S,8s)-3-azabicyclo[3.2.1]octan-8-yl)(methyl)amino)pyridazin-3-yl)-5-(1H-pyrazol-4-yl)phenol]	> 1000	> 1000	501 to 1000
CN(c1ccc(-c2ccc(-c3cn[nH]c3)cc2O)nn1)[C@H]1[C@@H]2CC[C@H]1CNC2 [compound 145, 2-(6-(((1R,5S,8r)-3-azabicyclo[3.2.1]octan-8-yl)(methyl)amino)pyridazin-3-yl)-5-(1H-pyrazol-4-yl)phenol]	> 1000	> 1000	> 1000
CN(c1ccc(-c2ccc(-c3cn[nH]c3)cc2O)nn1)[C@H]1C[C@H]2C[C@@H]1CN2 [compound 146, 2-(6-(((1R,4R,5S)-2-azabicyclo[2.2.1]heptan-5-yl)(methyl)amino)pyridazin-3-yl)-5-(1H-pyrazol-4-yl)phenol]	251 to 500	101 to 250	> 1000
CN(c1ccc(-c2ccc(-c3cn[nH]c3)cc2O)nn1)[C@@H]1C[C@@H]2C[C@H]1CN2 [compound 147, 2-(6-(((1S,4S,5R)-2-azabicyclo[2.2.1]heptan-5-yl)(methyl)amino)pyridazin-3-yl)-5-(1H-pyrazol-4-yl)phenol]	251 to 500	101 to 250	> 1000
CN(c1ccc(-c2ccc(-c3cn[nH]c3)cc2O)nn1)[C@@H]1C[C@H]2C[C@@H]1CN2 [compound 148, 2-(6-(((1R,4R,5R)-2-azabicyclo[2.2.1]heptan-5-yl)(methyl)amino)pyridazin-3-yl)-5-(1H-pyrazol-4-yl)phenol]	> 1000	> 1000	> 1000
CN(c1ccc(-c2ccc(-c3cn[nH]c3)cc2O)nn1)[C@H]1C[C@@H]2C[C@H]1CN2 [compound 149, 2-(6-(((1S,4S,5S)-2-azabicyclo[2.2.1]heptan-5-yl)(methyl)amino)pyridazin-3-yl)-5-(1H-pyrazol-4-yl)phenol]	> 1000	251 to 500	> 1000
C[C@]12CC[C@](C)(C[C@H](Oc3ccc(-c4ccc(-c5cn[nH]c5)cc4O)nn3)C1)N2 [compound 153, 2-(6-(((1R,3r,5S)-1,5-dimethyl-8-azabicyclo[3.2.1]octan-3-yl)oxy)pyridazin-3-yl)-5-(1H-pyrazol-4-yl)phenol]	> 1000	> 1000	> 1000
CN(c1ccc(-c2ccc(-c3cn[nH]c3)cc2O)nn1)[C@H]1C[C@H]2COC[C@@H](C1)N2 [compound 155, 2-(6-(((1R,5S,7s)-3-oxa-9-azabicyclo[3.3.1]nonan-7-yl)(methyl)amino)pyridazin-3-yl)-5-(1H-pyrazol-4-yl)phenol]	> 1000	> 1000	> 1000
Oc1cc(-c2cn[nH]c2)ccc1-c1ccc(O[C@H]2C[C@H]3COC[C@@H](C2)N3)nn1 [compound 158, 2-(6-(((1R,5S,7s)-3-oxa-9-azabicyclo[3.3.1]nonan-7-yl)oxy)pyridazin-3-yl)-5-(1H-pyrazol-4-yl)phenol]	> 1000	> 1000	> 1000
Oc1cc(-c2cn[nH]c2)ccc1-c1ccc(O[C@@H]2C[C@H]3COC[C@@H](C2)N3)nn1 [compound 159, 2-(6-(((1R,5S,7r)-3-oxa-9-azabicyclo[3.3.1]nonan-7-yl)oxy)pyridazin-3-yl)-5-(1H-pyrazol-4-yl)phenol]	501 to 1000	251 to 500	501 to 1000
